Results: paper PMC10537185, “Dihydroxyphenyl- and Heteroaromatic-Based Thienopyrimidinones to Tackle HIV-1 LEDGF/p75-Dependent IN Activity” (Molecules, 2023)
Where two headings read alike, the source gives them in different places.

Tests used:
[1] = target: T1, HIV-1 IN LEDGF/p75-dependent activity (Human immunodeficiency virus type 1 group M subtype B, UniProt P04585); assay: HTRF LEDGF-dependent IN assay; assay type: biochemical; details: for IC50: recombinant IN with LEDGF/p75, HTRF; for IN inhibitory activity (in words): LEDGF/p75-dependent IN activity
T1 construct: Recombinant His and FLAG-IN proteins and His and FLAG-LEDGF proteins were expressed in Escherichia coli strain BL21 (DE3); His or FLAG (separate preparations); made in house; host or cells: Escherichia coli BL21 (DE3)
Method: Recombinant His and FLAG-IN proteins and His and FLAG-LEDGF proteins were expressed in Escherichia coli strain BL21 (DE3) and purified, as previously described.
IN activity in the presence of recombinant LEDGF/p75 protein were determined as described before. IN was pre-incubated in reaction buffer containing 20 mM HEPES pH 7.5, 1 mM DTT, 1% glycerol, 20 mM MgCl2, 0.05% Brij-35 and 0.1 mg/mL BSA with increasing concentration of compounds for 1 h at room temperature. After the addition to this mixture of 9 nM DNA donor substrate, 50 nM DNA acceptor substrate and 50 nM LEDGF/p75 protein (when required), the reaction was incubated at 37 °C for 90 min. The addition of 4 nM of Europium–Streptavidin to the reaction mixture provided the HTRF signal, which was recorded using a Perkin Elmer (Waltham, MA, USA) Victor 3 plate reader with 314 nm for excitation wavelength and 668 and 620 nm for the wavelength of the acceptor and the donor substrates emission, respectively.

HIV-1 RT-RNase H [2] = target: T2, HIV-1 RT-RNase H (Human immunodeficiency virus type 1 group M subtype B, UniProt P04585); assay: RNase H inhibitory assay (fluorescent RNA/DNA hybrid); assay type: biochemical; details: for IC50: wild type p66/p51 HIV-1 RT
T2 construct: preparation and purification of wild type p66/p51 HIV-1 RT; made in house
Method: The previously reported procedure was used for preparation and purification of wild type p66/p51 HIV-1 RT. Enzyme was stored in a 50% glycerol-containing buffer at −20 °C [32, 46]. An 18-nt 3′-fluorescein-labeled RNA annealed to a complementary 18-nt 5′-dabsyl-labeled DNA was used to determine IC50 values, following a previously described procedure. In brief, 1 μL of each inhibitor dissolved in DMSO was added to a 96-well plate, followed by 10 μL of the proper RT ([…]) in reaction buffer. The addition of 10 μL of RNA/DNA hybrid (2.5 μM) initiated the hydrolysis. Then, 50 mM Tris-HCl, pH 8.0, 60 mM KCl, 10 mM MgCl2, 1% DMSO, 150−800 ng of RT, 250 nM substrate, and increasing concentrations of inhibitor were chosen as final assay conditions. As negative control, wells containing only DMSO were used. Subsequently, the plates were incubated in a Spectramax Gemini EM fluorescence spectrometer for 10 min at 37 °C, measuring the fluorescence (λex = 485 nm; λem = 520 nm) at 1 min intervals in order to determine the linear initial rates in the presence (vi) and absence (vo) of inhibitor. Percent inhibition was assessed as 100(vo − vi)/vo and plotted against log[I]. Prism5 (GraphPad Software 5.0) was used to calculate the IC50 values. All assays were carried out in triplicate.

HIV-1 RT-RNase H [3] = target: T2, HIV-1 RT-RNase H; parameters: method as in PMID 23631411; details: cited from earlier work
[4] = target: T1, HIV-1 IN LEDGF/p75-dependent activity; parameters: method as in PMID 23631411; details: first experiment, 3,4-catechol analogue of 5; cited from earlier work

SMILES: Cc1sc2nc(-c3ccc(O)c(O)c3)[nH]c(=O)c2c1C [Compound 8, 2-(3,4-dihydroxyphenyl)-5,6-dimethylthieno[2,3-d]pyrimidin-4(3H)-one]
- IC50 [1]: 24.4 ± 2.6 µM
- IC50 (HIV-1 RT-RNase H [2]): 0.26 ± 0.01 µM
- IC50 (HIV-1 RT-RNase H [3]): 0.26 ± 0.01 µM

SMILES: O=c1[nH]c(-c2ccc(O)c(O)c2)nc2sc3c(c12)CCCCC3 [Compound 9]
- IC50 [1]: 18.3 ± 2.3 µM
- IC50 (HIV-1 RT-RNase H [3]): 0.29 ± 0.11 µM

SMILES: Cc1sc2nc(-c3cccc(O)c3O)[nH]c(=O)c2c1C [Compound 10, 2-(2,3-dihydroxyphenyl)-5,6-dimethylthieno[2,3-d]pyrimidin-4(3H)-one]
- IC50 [1]: 12.6 ± 1.29 µM

SMILES: Cc1sc2nc(-c3ccccc3O)[nH]c(=O)c2c1C [Compound 11, 2-(2-hydroxyphenyl)-5,6-dimethylthieno[2,3-d]pyrimidin-4(3H)-one]
- IC50 [1]: 22 ± 2.8 µM

SMILES: Cc1sc2nc(-c3ccc(O)cc3O)[nH]c(=O)c2c1C [Compound 12, 2-(2,4-dihydroxyphenyl)-5,6-dimethylthieno[2,3-d]pyrimidin-4(3H)-one]
- IC50 [1]: 22.3 ± 1.57 µM

SMILES: Cc1sc2nc(-c3cc(O)ccc3O)[nH]c(=O)c2c1C [Compound 13]
- IC50 [1]: 85 ± 6 µM

SMILES: Cc1sc2nc(-c3cc(O)cc(O)c3)[nH]c(=O)c2c1C [Compound 14, 2-(3,5-dihydroxyphenyl)-5,6-dimethylthieno[2,3-d]pyrimidin-4(3H)-one]
- IC50 [1]: 3.7 ± 0.73 µM

SMILES: O=c1[nH]c(-c2cccc(O)c2O)nc2sc3c(c12)CCCCC3 [Compound 15]
- IC50 [1]: 24 ± 1 µM

SMILES: O=c1[nH]c(-c2ccc(O)cc2O)nc2sc3c(c12)CCCCC3 [Compound 16]
- IC50 [1]: 10 ± 1 µM

SMILES: O=c1[nH]c(-c2cc(O)ccc2O)nc2sc3c(c12)CCCCC3 [Compound 17]
- IC50 [1]: 5.65 ± 0.15 µM

SMILES: O=c1[nH]c(-c2cc(O)cc(O)c2)nc2sc3c(c12)CCCCC3 [Compound 18]
- IC50 [1]: 3.37 ± 0.48 µM

SMILES: CC1CCCc2sc3nc(-c4ccc(O)c(O)c4)[nH]c(=O)c3c21 (stereo not shown) [Compound 19, 2-(3,4-dihydroxyphenyl)-5-methyl-5,6,7,8-tetrahydrobenzo[4,5]thieno[2,3-d]pyrimidin-4(3H)-one]
- IC50 [1]: 5.9 ± 0.5 µM

SMILES: CC(C)Cc1csc2nc(-c3ccc(O)c(O)c3)[nH]c(=O)c12 [Compound 20, 2-(3,4-dihydroxyphenyl)-5-isobutylthieno[2,3-d]pyrimidin-4(3H)-one]
- IC50 [1]: 8.5 ± 2.5 µM

SMILES: Cc1sc2nc(-c3ccco3)[nH]c(=O)c2c1C [Compound 21, 2-(furan-2-yl)-5,6-dimethylthieno[2,3-d]pyrimidin-4(3H)-one]
- IC50 [1]: 5.75 ± 0.85 µM
- IC50 (HIV-1 RT-RNase H [2]): 2.5 ± 0.1 µM

SMILES: Cc1ccc(-c2nc3sc(C)c(C)c3c(=O)[nH]2)o1 [Compound 22, 5,6-dimethyl-2-(5-methylfuran-2-yl)thieno[2,3-d]pyrimidin-4(3H)-one]
- IC50 [1]: 8.75 ± 0.35 µM
- IC50 (HIV-1 RT-RNase H [2]): 14.4 ± 0.2 µM

SMILES: Cc1sc2nc(-c3ccc([N+](=O)[O-])o3)[nH]c(=O)c2c1C [Compound 23]
- IC50 [1]: 4.6 ± 0.82 µM
- IC50 (HIV-1 RT-RNase H [3]): 16.9 ± 1.7 µM

SMILES: Cc1sc2nc(-c3cccs3)[nH]c(=O)c2c1C [Compound 24, 5,6-dimethyl-2-(thiophen-2-yl)thieno[2,3-d]pyrimidin-4(3H)-one]
- IN inhibitory activity (in words) [1]: inactive
- IC50 [1]: > 50 µM
- IC50 (HIV-1 RT-RNase H [2]): 8.2 ± 1.3 µM

SMILES: Cc1sc2nc(-c3ccc([N+](=O)[O-])s3)[nH]c(=O)c2c1C [Compound 25, 5,6-dimethyl-2-(5-nitrothiophen-2-yl)thieno[2,3-d]pyrimidin-4(3H)-one]
- IC50 [1]: 3.2 ± 0.8 µM
- RNase H inhibitory activity (in words) (HIV-1 RT-RNase H [2]): completely inactive
- IC50 (HIV-1 RT-RNase H [2]): > 50 µM

SMILES: Cc1sc2nc(-c3c[nH]c4ccccc34)[nH]c(=O)c2c1C [Compound 26]
- IC50 [1]: 2.85 ± 0.85 µM
- IC50 (HIV-1 RT-RNase H [3]): 0.48 ± 0.6 µM

SMILES: Cc1sc2nc(-c3ccc[nH]3)[nH]c(=O)c2c1C [Compound 27, 5,6-dimethyl-2-(1H-pyrrol-2-yl)thieno[2,3-d]pyrimidin-4(3H)-one]
- IN inhibitory activity (in words) [1]: completely IN inactive
- IC50 [1]: > 50 µM
- IC50 (HIV-1 RT-RNase H [2]): 35.3 ± 1.5 µM

SMILES: Cc1sc2nc(-c3cccn3C)[nH]c(=O)c2c1C [Compound 28, 5,6-dimethyl-2-(1-methyl-1H-pyrrol-2-yl)thieno[2,3-d]pyrimidin-4(3H)-one]
- IN inhibitory activity (in words) [1]: completely IN inactive
- IC50 [1]: > 50 µM
- IC50 (HIV-1 RT-RNase H [2]): 14.8 ± 0.6 µM

SMILES: CCCc1c(C)sc2nc(-c3ccc(O)c(O)c3)[nH]c(=O)c12 [Compound 29]
- IC50 [4]: > 50 µM
